We go through 28 compounds from patent publication US6500843B2, “Inhibitors of rotamase enzyme activity” (GPI NIL Holdings, Inc., priority 1995, dated 2002).

Read-outs that look alike come from different tables or passages of the source. A value given as a limit tells only on which side of the number the result lay.

What is called Ki is the equilibrium dissociation constant of an inhibitor or competing ligand from its target. As usually defined, the IC50 is the concentration that inhibits the measured activity by half.

Experiment [1] deals with rotamase activity of FKBP-12 (Homo sapiens, UniProt P62942). Briefly: Rotamase inhibition (FKBP-12). Format: biochemical.
rotamase activity of FKBP-12, sequence (P62942 whole entry): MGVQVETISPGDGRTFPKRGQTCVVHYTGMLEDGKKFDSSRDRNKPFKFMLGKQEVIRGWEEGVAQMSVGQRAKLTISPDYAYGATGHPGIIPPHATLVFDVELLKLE
The test system of experiment [2] is chick dorsal root ganglion explant cultures. Briefly: Neurite outgrowth in chick dorsal root ganglion explant cultures. As to conditions: for EC50: Gallus gallus. Format: cell-based.
Experimental: Explants of chick DRG were cultured as described in FIG. 17 above. […] At 48 hrs., neurite outgrowth was quantitated and the cultures were photographed. Dorsal root ganglion were dissected from chick embryos of ten day gestation. […] Twenty-four hours later, the DRG's were treated with various concentrations of nerve growth factor, immunophilin ligands or combinations of NGF plus drugs. Forty-eight hours after drug treatment, the ganglia were visualized under phase contrast or Hoffman Modulation contrast with a Zeiss Axiovert inverted microscope. Photomicrographs of the explants were made, and neurite outgrowth was quantitated. […] Three to four DRGs are cultured per well, and each treatment was performed in duplicate.
Experiment [3] has as its system Sprague-Dawley rats, sciatic nerve crush. Briefly: Sciatic nerve axotomy (crush) model of nerve regeneration. Format: in vivo, rat. As for the experimental part:
Six-week old male Sprague-Dawley rats were anesthetized, and the sciatic nerve exposed and crushed, at the level of the hip, by forceps. Test compounds or vehicle were administered subcutaneously just prior to the lesion and daily for the following 18 days. Sections of the sciatic nerve were stained with Holmes silver stain to quantify the number of axons, and Luxol fast blue to quantify the level of myelination. Eighteen days after lesion, there was a significant decrease in the number of axons (50% decrease as compared to non-lesioned control) and degree of myelination (90% decrease as compared to non-lesioned control) in animal treated with vehicle.

A further experiment concerns the target recombinant FKBP-12 (Homo sapiens, UniProt P62942). Briefly: Inhibition of 3H-FK506 binding to recombinant FKBP-12. As to conditions: read-out: [3H]-FK506-FKBP12 (IC50).
In a further experiment the test system is PC-12 cells. Briefly: Neurite outgrowth in PC-12 cells in the presence of NGF. As to conditions: for Concentration for maximal effects on neurite extension: 4 days; for EC50: Rattus norvegicus.
The subject of another experiment is dorsal root ganglia. Briefly: Neurite outgrowth in rat embryonic day 16 dorsal root ganglia explants. Format: cell-based. As to conditions: no added NGF. As for the experimental part: Stage E16 embryos were removed from pregnant Sprague-Dawley rats and the dorsal root ganglia dissected. Whole ganglia explants were cultured in collagen-coated 35 mm dishes (Falcon) using N2 medium (Dulbecco's Modified Eagle medium and Ham's F12 medium mixed 1:1 and supplemented with progesterone, selenium, insulin, putrescine, glucose, and penicillin-streptomycin) at 37° C. in a 15% CO2 environment. […] Ganglia were observed every 2-3 days under phase-contrasting using an Olympus IMT-2 inverted microscope, and measurements of axon length were made. The axonal field of each ganglion was divided into four quadrants, and the length of the longest axons in each quadrant was measured in microns using an eye-piece micrometer. The average of these measurements was taken as the axon length for the ganglion.

For the next experiment, the target named is FKBP (Rattus norvegicus, UniProt Q62658). Briefly: [3H]FK506 binding to PC-12 cell homogenates. As to conditions: untreated PC-12 cell homogenates, 250 pM radioligand.
FKBP, sequence (Q62658 whole entry): as the sequence (P62942 whole entry) above, with P10S, M50T, T76I counted along it
A further experiment relates to calcineurin. Briefly: Calcineurin inhibition. The format is biochemical. As to conditions: YES/NO.
The mark [4] stands for this setting: Table I, read-out: Rotamase Inhibition Ki.
Setting [5] is: Neuron, Table I, cultured sensory neurons, read-out: Neutrophic ED50 Chick DRGs.
[6] abbreviates: 30 mg/kg s.c. daily, 18 days after lesion.
Setting [7] is: s.c. daily for 18 days following the lesion.
The mark [8] stands for this setting: PC-12, 96 h, read-out: Half-maximal stimulation of neurite extension.
Where [9] appears, read: 0.1 ng/ml NGF, 48 hr, read-out: EC50 for stimulating nerve outgrowth in the ganglia.

recombinant FKBP-12, sequence (P62942 whole entry, species assumed): as the sequence (P62942 whole entry) above

For `COc1ccc(CCCCOC(=O)[C@@H]2CCCCN2C(=O)Cc2cc(OC)c(OC)c(OC)c2)cc1` [Example 6], the Ki in experiment [1] (setting [4]) worked out at 140 nM. For the same compound, the EC50 in experiment [2] (setting [5]) amounted to 25 nM.

`COc1ccc(CCCCOC(=O)[C@@H]2CCCCN2C(=O)C(=O)c2cc(OC)c(OC)c(OC)c2)cc1` [Example 9]: the EC50 in experiment [2] (setting [5]) amounted to 0.03 nM.

Take `CCC(C)(C)C(=O)C(=O)N1CCCCC1C(=O)OCCCc1cc(OC)c(OC)c(OC)c1` (stereo not shown) [Example 13]: in experiment [3] (setting [6]), the “Axon Number (% Control)” value was 100 % Control and the “Myelin Level” value was 50. Also, in experiment [3] (setting [7]), the “Decrease in axon number as compared to non-lesioned control” value turned out to be 5% and the “Decrease in degree of myelination as compared to control” value came out at 50%. Further, the Ki in experiment [1] (setting [4]) amounted to 25 nM. Moreover, on recombinant FKBP-12 (Table 3), the IC50 amounted to 4000 nM.

Regarding `CC1(C)COC(=O)CCCCCCCCCOC(=O)[C@@H]2CCCCN2C(=O)C1=O` [Example 19], the Ki in experiment [1] (setting [4]) was 12 nM. The EC50 in experiment [2] (setting [5]) amounted to 0.017 nM.

Take `CCOC(=O)C1CCCCN1C(=O)C(C)=O` (stereo not shown) [Example 36]: the Ki in experiment [1] (setting [4]) is greater than 10000 nM.

As for `CCOC(=O)C1CCCCN1C(=O)C(=O)C(C)(C)CC` (stereo not shown) [Example 41], in experiment [1] (setting [4]), the Ki was 1300 nM.

On to `CCOC(=O)C1CCCCN1C(=O)C(=O)c1ccccc1` (stereo not shown) [Example 50], for which the Ki in experiment [1] (setting [4]) was greater than 10000 nM.

For the compound `CCC(C)(C)C(=O)C(=O)N1CCCCC1C(=O)OCC=Cc1ccc(Cl)c(Cl)c1` (stereo not shown) [Example 90], the Ki in experiment [1] (setting [4]) was determined as 1800 nM. The EC50 in experiment [2] (setting [5]) is 2500 nM.

For the compound `CCC(C)(C)C(=O)C(=O)N1CCCCC1C(=O)OCC=Cc1cc(OC)c(OC)c(OC)c1` (stereo not shown) [Example 91], the Ki in experiment [1] (setting [4]) turned out to be 28 nM. Also, the EC50 in experiment [2] (setting [5]) worked out at 200 nM.

Regarding `CCC(C)(C)C(=O)C(=O)N1CCCCC1C(=O)OCC=Cc1ccccc1` (stereo not shown) [Example 92], the Ki in experiment [1] (setting [4]) stood at 39 nM. In addition, the EC50 in experiment [2] (setting [5]) was 90 nM.

Turning to `CCC(C)(C)C(=O)C(=O)N1CCCC[C@H]1C(=O)OCCCc1cc(OC)ccc1OC` [Example 93], the Ki in experiment [1] (setting [4]) was determined as 75 nM.

Turning to `CCC(C)(C)C(=O)C(=O)N1CCCC[C@H]1C(=O)OCCCc1ccc2c(c1)OCO2` [Example 94], the Ki in experiment [1] (setting [4]) came out at 70 nM.

Turning to `COc1ccc(CCCCOC(=O)[C@@H]2CCCCN2C(=O)C(=O)c2ccccc2)cc1` [Example 95], the Ki in experiment [1] (setting [4]) was 165 nM.

As to `O=C(C(=O)N1CCCC[C@H]1C(=O)OCCCc1ccccc1)c1ccccc1` [Example 96], the Ki in experiment [1] (setting [4]) came out at 740 nM.

On to `CCC(C)(C)C(=O)C(=O)N1CCCC[C@H]1C(=O)OCCCc1cccnc1` [Example 98], for which the Ki in experiment [1] (setting [4]) came out at 130 nM. Besides, the EC50 in experiment [2] (setting [5]) was determined as 75 nM.

As to `CCC(C)(C)C(=O)C(=O)N1CCCC[C@H]1C(=O)OC(CCCc1ccccc1)CCCc1ccccc1` [Example 99], the EC50 in experiment [2] (setting [5]) came to 5 nM.

With `CCC(C)(C)C(=O)C(=O)N1CCCC[C@H]1C(=O)OCCCCc1ccc(OC)cc1` [Example 100], the Ki in experiment [1] (setting [4]) was 60 nM.

Consider `CCC(C)(C)C(=O)C(=O)N1CCCCC1C(=O)OC(CCCc1ccccc1)CCc1ccc(OC)cc1` (stereo not shown) [Example 101], for which the Ki in experiment [1] (setting [4]) worked out at 15 nM. For the same compound, in experiment [2] (setting [5]), the EC50 was 0.17 nM.

Regarding `CCC(C)(C)C(=O)C(=O)N1CCCC[C@H]1C(=O)OCCCc1cc(OC)ccc1OC` [Example 102], the Ki in experiment [1] (setting [4]) amounted to 12 nM. Besides, the “Neurite outgrowth in photomicrographs” value in experiment [2] (1 pM, 100 pM and 100 nM (FIGS. 19-21)) was “promoting neurite outgrowth”. In addition, the EC50 in experiment [2] (setting [5]) came out at 205 nM.

Consider `CCC(C)(C)C(=O)C(=O)N1CCCC[C@H]1C(=O)OCCCc1ccc2c(c1)OCO2` [Example 103], for which the Ki in experiment [1] (setting [4]) was 120 nM. Besides, the EC50 in experiment [2] (setting [5]) was 3 nM.

With `CCC(C)(C)C(=O)C(=O)N1CCCC[C@H]1C(=O)OC(CCCCc1ccccc1)c1ccccc1` (stereo partly shown) [Example 104], in experiment [1] (setting [4]), the Ki was determined as 20 nM.

With `COc1ccc(CCCCOC(=O)[C@@H]2CCCCN2C(=O)C(=O)C2CCCCC2)cc1` [Example 105], the Ki in experiment [1] (setting [4]) stood at 103 nM.

`O=C(C(=O)N1CCCC[C@H]1C(=O)OCCCC1CCCCC1)C1CCCCC1` [Example 106]: the Ki in experiment [1] (setting [4]) was found to be 760 nM. In addition, the EC50 in experiment [2] (setting [5]) was 1 nM.

Regarding `O=C(C(=O)N1CCCC[C@H]1C(=O)OCCCc1ccccc1)C1CCCCC1` [Example 107], the Ki in experiment [1] (setting [4]) was 210 nM. In experiment [2] (setting [5]), the EC50 was found to be 0.82 nM.

On to `C=CC[C@@H]1/C=C(\C)C[C@H](C)C[C@H](OC)[C@H]2O[C@@](O)(C(=O)C(=O)N3CCCC[C@H]3C(=O)O[C@H](/C(C)=C/[C@@H]3CC[C@@H](O)[C@H](OC)C3)[C@H](C)[C@@H](O)CC1=O)[C@H](C)C[C@@H]2OC` [FK506], for which the “Maximal enhancement of neurite outgrowth” value in the experiment with PC-12 cells (0.5 ng/ml NGF, 100 nM drug, 96 hours) is given as 2.5 fold. Moreover, the “Concentration for maximal effects on neurite extension” value (“Concentration for maximal effects” for short) in the experiment with PC-12 cells (0.5 ng/ml NGF) was 5 to 100 nM. In addition, the “Concentration eliciting the same maximal outgrowth observed with 50 ng/ml NGF” value in the experiment on PC-12 cells (1 ng/ml NGF, 48 hr) is reported as 1 nM. In addition, the “Reduction of the NGF concentration needed to elicit maximal outgrowth” value in the experiment on PC-12 cells (FK506 100 nM, 48 hr) was 20-50 fold. Further, the EC50 in the experiment on PC-12 cells (PC-12, 48 h, read-out: Half maximal effects on neurite outgrowth) was roughly 0.1 nM; with PC-12 cells (setting [8]), 0.5 nM; in the experiment with PC-12 cells (PC-12, read-out: Neurite Outgrowth (ED50)) it was 0.5 nM; in experiment [2] (setting [9]) it was 1 to 2 nM. Further, in the experiment on dorsal root ganglia, the “Concentration producing a noticeable increase in growth” value was determined as 1 nM. For the same compound, in the experiment on dorsal root ganglia, the “Concentration producing detectable augmentation of neurite outgrowth” value was 1 pM. The “Concentration required for maximal outgrowth” value in the experiment on dorsal root ganglia came to 1 pM. The compound also had an IC50 at FKBP of 1 to 2 nM.

`CO[C@H]1C[C@@H]2CC[C@@H](C)[C@@](O)(O2)C(=O)C(=O)N2CCCC[C@H]2C(=O)O[C@H]([C@H](C)C[C@@H]2CC[C@@H](O)[C@H](OC)C2)CC(=O)[C@H](C)/C=C(\C)[C@@H](O)[C@@H](OC)C(=O)[C@H](C)C[C@H](C)/C=C/C=C/C=C/1C` [Rapamycin]: the “Concentration for maximal effects” value in the experiment on PC-12 cells (0.5 ng/ml NGF) was 10 to 100 nM. The “Stimulation of neurite outgrowth” value in the experiment on PC-12 cells (0.1-0.5 ng/ml NGF, 100 nM drug, 96 hours) is listed as 3-4 fold. The EC50 was 0.2 to 0.4 nM in the experiment with PC-12 cells (setting [8]) and 1 nM in experiment [2] (setting [9]).

`COC1CC2CCC(C)C(O)(O2)C(=O)C(=O)N2CCCCC2C(=O)OC(C(C)CC2CCC(O)C(OC)C2)CC(=O)C(C)C=C(C)C(O)C(OC)C(=O)C(C)CC(C)C2C=CC(C=C1C)n1c(=O)n(-c3ccccc3)c(=O)n12` (stereo not shown) [WAY-124466]: the “Concentration for maximal effects” value in the experiment on PC-12 cells (0.5 ng/ml NGF) was 100-1,000 nM. In the experiment on PC-12 cells (setting [8]), the EC50 is roughly 10 nM. Besides, in the experiment with PC-12 cells (picomolar concentrations, 0.5 ng/ml NGF, 4 days (FIG. 15)), the “Potentiation of neurite extension elicited by NGF” value is on record as “potentiate neurite extension”. Also, in the experiment with calcineurin, the “Calcineurin Inhibition” value was “fails to inhibit calcineurin”. In experiment [1] (Table 2, read-out: Rotamase (Ki)), the Ki was determined as 12 nM. The IC50 on recombinant FKBP-12 (Table 2) was 10 nM. Besides, the “Potentiation of NGF-dependent neurite production in sensory ganglia” value in experiment [2] (100 nM, plus or minus 0.1 ng/ml NGF, 48 hrs (FIG. 18)) was “potentiate NGF-dependent neurite production”.

Consider NGF: nerve growth factor, for which the “NGF concentration for maximal augmentation of neurite outgrowth” value with PC-12 cells (48 hr) was 50 to 100 ng/mL. In addition, in the experiment on PC-12 cells (FK506 100 nM, 48 hr), the “NGF concentration for half maximal outgrowth in the presence of FK506” value was 0.1 ng/mL. In addition, the “Neurite extension as % of maximal effects evident at 50 ng/ml NGF” value with PC-12 cells (NGF alone at 0.1 ng/ml) is recorded as “about 15%”.
